This is an account of results in the supplement of paper PMC10307832.

Assay in all cases: relative viability (nuclei count vs DMSO), 5 days (fraction); higher = more cells survive
Compound in the test “Selisistat + Crizotinib”: C1CC(C2=C(C1)C3=C(N2)C=CC(=C3)Cl)C(=O)N [Selisistat] + C[C@@H](Oc1cc(-c2cnn(C3CCNCC3)c2)cnc1N)c1c(Cl)ccc(F)c1Cl [Crizotinib] (partner 1 µM)
The method in brief: (§1)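 Relative viability was taken as the ratio of nuclei in treated wells to nuclei in vehicle wells. Lung cancer cell lines in 1536-well plates received compounds by pin tool one day after seeding, either one drug alone or a fixed anchor-drug dose plus five library-drug doses (not always all listed) in √10 steps. Nuclei were counted on 4× images after 5 days of treatment, and values are medians of duplicate plates.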

Compound in the test “Selisistat + Dasatinib”: C1CC(C2=C(C1)C3=C(N2)C=CC(=C3)Cl)C(=O)N [Selisistat] + Cc1nc(Nc2ncc(C(=O)Nc3c(C)cccc3Cl)s2)cc(N2CCN(CCO)CC2)n1 [Dasatinib] (partner 0.075 µM)
In a few lines:
as §1

Compound in the test “Selisistat + Pemetrexed”: C1CC(C2=C(C1)C3=C(N2)C=CC(=C3)Cl)C(=O)N [Selisistat] + Nc1nc2[nH]cc(CCc3ccc(C(=O)N[C@@H](CCC(=O)O)C(=O)O)cc3)c2c(=O)[nH]1 [Pemetrexed] (partner 0.2 µM)
The method in brief: as §1

Compound in the test “Serdemetan + Luminespib”: c1ccc2c(CCNc3ccc(Nc4ccncc4)cc3)c[nH]c2c1 [Serdemetan] + CCNC(=O)c1noc(-c2cc(C(C)C)c(O)cc2O)c1-c1ccc(CN2CCOCC2)cc1 [Luminespib] (partner 0.01 µM)
The method in brief: as §1

On to UMC-11, for which the relative viability with Selisistat + Crizotinib (first compound 0.4 µM) was 0.812; with Selisistat + Crizotinib (first compound 1.265 µM), 0.653; with Selisistat + Crizotinib (first compound 4 µM), 0.683; in the test with Selisistat + Crizotinib (first compound 12.65 µM), 0.69; with Selisistat + Crizotinib (first compound 40 µM), 0.577; with Selisistat + Dasatinib (first compound 0.4 µM), 0.434. In addition, the relative viability was found to be 0.477 in the test with Selisistat + Dasatinib (first compound 1.265 µM); 0.521 with Selisistat + Dasatinib (first compound 4 µM); 0.476 in the test with Selisistat + Dasatinib (first compound 12.65 µM); 0.559 with Selisistat + Dasatinib (first compound 40 µM); 0.767 in the test with Selisistat + Pemetrexed (first compound 0.4 µM); 0.749 in the test with Selisistat + Pemetrexed (first compound 1.265 µM). Also, the relative viability with Selisistat + Pemetrexed (first compound 4 µM) amounted to 0.844; in the test with Selisistat + Pemetrexed (first compound 12.65 µM), 0.754; with Selisistat + Pemetrexed (first compound 40 µM), 0.759; with Serdemetan + Luminespib (first compound 0.04 µM) it was 0.938; with Serdemetan + Luminespib (first compound 0.1265 µM) it was 1.01; with Serdemetan + Luminespib (first compound 4 µM), 0.852.
